According to paper PMC9027532, “Preclinical Pharmacokinetic Studies of a Novel Diuretic Inhibiting Urea Transporters” (Molecules, 2022):
“Also recorded” adds a separate entry of the source.

Experiments:
[1] = Pharmacokinetic study in rats (plasma, LC-MS/MS, NCA); details: for concentration at 0.083 h / concentration at 0.167 h / concentration at 0.25 h / concentration at 0.5 h / concentration at 1 h / concentration at 2 h / concentration at 4 h / concentration at 6 h / concentration at 8 h / concentration at 12 h / concentration at 24 h: Mean plasma concentration
[2] = Blood plasma ratio, rat blood; format: in vitro ADME, SD rats; details: for Blood Plasma Ratio: rat
Description: (§1) The BPR of 25a in rats and humans was assessed. […] In addition, a significant species difference between rats and humans was observed (p < 0.05, Student’s t-test, n = 3).
(§2) The blood plasma ratio of 25a was investigated as previously reported. Briefly, fresh whole blood was collected into collection tubes containing K2–EDTA as an anticoagulant from SD rats and healthy volunteers. Blood spiked with 50, 500, and 2500 ng/mL 25a was incubated in the incubator with 5% CO2 at 37 ± 1 °C for 1 h. Some of the incubated samples were processed as blood samples; the remaining incubated samples were centrifuged to generate plasma samples. The concentration of 25a in samples was determined using the validated LC–MS/MS method.

in vivo = details: male, Sprague-Dawley, rat, po
mice = system: mice; parameters: method as in PMID 34601246; details: orally administered; cited from earlier work
UT-B = system: UT-B; parameters: method as in PMID 34601246; details: rat; read-out: inhibitory effect on UT-B; cited from earlier work
[3] = Blood plasma ratio, human blood; format: in vitro ADME; details: for Blood Plasma Ratio: human
Description: as §1, §2

[4] = male, Sprague-Dawley, rat, plasma, po, 100 mg/kg, rats, multiple p.o. 100 mg/kg
[5] = male, Sprague-Dawley, rat, plasma, po, 100 mg/kg, rats, single p.o. 100 mg/kg

CC(=O)Nc1ccc(NC(=O)c2ccc(C(C)=O)o2)cc1 [Compound 25a, N-(4-acetamidophenyl)-5-acetylfuran-2-carboxamide]
MRT ([1]; male, Sprague-Dawley, rat, plasma, po, 100 mg/kg, MRT, rats, single p.o. 100 mg/kg): 5.3 ± 0.3 h
concentration at 0.083 h [1, 4]: 681 ± 97 ng/mL
concentration at 0.083 h [1, 5]: 1080 ± 287 ng/mL
concentration at 0.167 h [1, 4]: 936 ± 102 ng/mL
concentration at 0.167 h [1, 5]: 1320 ± 235 ng/mL
concentration at 0.25 h [1, 4]: 1090 ± 192 ng/mL
concentration at 0.25 h [1, 5]: 1210 ± 196 ng/mL
concentration at 0.5 h [1, 4]: 1260 ± 168 ng/mL
concentration at 0.5 h [1, 5]: 1030 ± 124 ng/mL
concentration at 1 h [1, 4]: 1410 ± 283 ng/mL
concentration at 1 h [1, 5]: 734 ± 134 ng/mL
concentration at 2 h [1, 4]: 1710 ± 185 ng/mL
concentration at 2 h [1, 5]: 687 ± 146 ng/mL
concentration at 4 h [1, 4]: 1080 ± 110 ng/mL
concentration at 4 h [1, 5]: 1130 ± 245 ng/mL
concentration at 6 h [1, 4]: 717 ± 196 ng/mL
concentration at 6 h [1, 5]: 835 ± 178 ng/mL
concentration at 8 h [1, 4]: 494 ± 111 ng/mL
concentration at 8 h [1, 5]: 596 ± 126 ng/mL
concentration at 12 h [1, 4]: 245 ± 73.6 ng/mL
concentration at 12 h [1, 5]: 173 ± 36.7 ng/mL
concentration at 24 h [1, 4]: 28.1 ± 85.9 ng/mL
concentration at 24 h [1, 5]: 10.9 ± 6.6 ng/mL
half-life ([1]; male, Sprague-Dawley, rat, plasma, po, 100 mg/kg, half-life, rats, single oral doses 25, 50, 100 mg/kg): 2.6 to 3 h
half-life ([1]; male, Sprague-Dawley, rat, plasma, po, 100 mg/kg, t1/2, rats, multiple p.o. 100 mg/kg, twice per day for 7 days): 5.03 ± 0.82 h
Tmax at 7 days ([1]; male, Sprague-Dawley, rat, plasma, po, 100 mg/kg, tmax, rats, multiple p.o. 100 mg/kg, twice per day for 7 days): ~2 h
Tmax ([1]; male, Sprague-Dawley, rat, plasma, po, 100 mg/kg, tmax, rats, single p.o. 100 mg/kg): ~0.17 h
bioavailability ([1]; male, Sprague-Dawley, rat, plasma, po, oral bioavailability, SD rats, oral administration, overall): ≤ 20%
time to reach maximum plasma concentration (Cmax) ([1]; rats, after oral administration): ≤ 0.5 h
V/F ([1]; rats, multiple p.o. 100 mg/kg, twice per day for 7 days): 59.8 ± 11.8 L/kg
bioavailability of 25a relative to lead compound 1H ([1]; rats, oral): approximately fourfold; also recorded: approximately four times higher
V (V/F row) ([1]; rats, single i.v. 1 mg/kg): 2.6 ± 1.4 L/kg
V/F ([1]; rats, single p.o. 25 mg/kg): 40.9 ± 7.4 L/kg
V/F ([1]; rats, single p.o. 50 mg/kg): 40.1 ± 10.8 L/kg
AUC0–∞ ([1]; rats, single p.o. 100 mg/kg): 6957.4 ± 345.1 ng·h/mL
V/F ([1]; rats, single p.o. 100 mg/kg): 63.0 ± 17.6 L/kg
t1/2 ([1]; rats, single p.o. 100 mg/kg): 3.04 ± 0.70 h
clearance ([1]; read-out: CL (CL/F row), rats, single i.v. 1 mg/kg): 35 mL/min/kg
MRT (in vivo): ~5.4 h
MRT (in vivo; 50 mg/kg): 5.4 ± 0.8 h
AUC(0-t) (in vivo; 100 mg/kg): 6920 ± 377 ng·h/mL
Na+, K+, and Cl− levels in the blood (mice): without disturbing
urine output vs vehicle control (mice): three times higher urine output than vehicle control
